Measured values: PubChem BioAssay (NCI)
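Briefly, cells in 96-well plates were exposed to five compound concentrations for 48 h, and endpoints were estimated by linear interpolation. TGI: total growth inhibition.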

Tests used:
Test in all cases: NCI tumour cell line growth inhibition, 48 h
CCRF-CEM leukemia = system: CCRF-CEM leukemia
DU-145 prostate = system: DU-145 prostate
HCT-116 colon = system: HCT-116 colon
HL-60(TB) leukemia = system: HL-60(TB) leukemia
LOX IMVI melanoma = system: LOX IMVI melanoma
MCF7 breast = system: MCF7 breast
MDA-N = system: MDA-N
NCI/ADR-RES ovarian = system: NCI/ADR-RES ovarian
OVCAR-8 ovarian = system: OVCAR-8 ovarian
SF-539 CNS = system: SF-539 CNS
SR leukemia = system: SR leukemia
SW-620 colon = system: SW-620 colon
UACC-257 melanoma = system: UACC-257 melanoma
UACC-62 melanoma = system: UACC-62 melanoma

Structure (SMILES): CCOC(=O)CC1c2ccc(O)cc2OC(=O)C1c1ccc([N+](=O)[O-])cc1 (stereo not given)
- TGI (CCRF-CEM leukemia): 62.1 µM
- TGI (DU-145 prostate): > 100 µM
- TGI (HCT-116 colon): 82.3 µM
- TGI (HL-60(TB) leukemia): 60 µM
- TGI (LOX IMVI melanoma): > 100 µM
- TGI (MCF7 breast): 40.9 µM
- TGI (MDA-N): 93.5 µM
- TGI (NCI/ADR-RES ovarian): 72.6 µM
- TGI (OVCAR-8 ovarian): 75.7 µM
- TGI (SF-539 CNS): > 100 µM
- TGI (SR leukemia): 77.5 µM
- TGI (SW-620 colon): > 100 µM
- TGI (UACC-257 melanoma): 94.5 µM
- TGI (UACC-62 melanoma): 84.4 µM

Structure (SMILES): CN(Nc1cc(=O)[nH]c(=O)[nH]1)c1ccccc1
- TGI (CCRF-CEM leukemia): > 100 µM
- TGI (DU-145 prostate): > 100 µM
- TGI (HCT-116 colon): > 100 µM
- TGI (HL-60(TB) leukemia): > 100 µM
- TGI (LOX IMVI melanoma): > 100 µM
- TGI (MCF7 breast): > 100 µM
- TGI (MDA-N): > 100 µM
- TGI (NCI/ADR-RES ovarian): > 100 µM
- TGI (OVCAR-8 ovarian): > 100 µM
- TGI (SF-539 CNS): > 100 µM
- TGI (SR leukemia): > 100 µM
- TGI (SW-620 colon): > 100 µM
- TGI (UACC-257 melanoma): > 100 µM
- TGI (UACC-62 melanoma): > 100 µM

Structure (SMILES): CC1(C)OCC2OC3(c4nc(C#N)c(N)o4)OC(C)(C)OC3C2O1 (stereo not given)
- TGI (CCRF-CEM leukemia): > 100 µM
- TGI (DU-145 prostate): > 100 µM
- TGI (HCT-116 colon): > 100 µM
- TGI (HL-60(TB) leukemia): > 100 µM
- TGI (LOX IMVI melanoma): > 100 µM
- TGI (MCF7 breast): > 100 µM
- TGI (MDA-N): > 100 µM
- TGI (NCI/ADR-RES ovarian): > 100 µM
- TGI (OVCAR-8 ovarian): > 100 µM
- TGI (SF-539 CNS): > 100 µM
- TGI (SR leukemia): > 100 µM
- TGI (SW-620 colon): > 100 µM
- TGI (UACC-257 melanoma): > 100 µM
- TGI (UACC-62 melanoma): > 100 µM

Structure (SMILES): O=C(O)c1ccc(NNc2cc(=O)[nH]c(=O)[nH]2)cc1
- TGI (CCRF-CEM leukemia): > 100 µM
- TGI (DU-145 prostate): > 100 µM
- TGI (HCT-116 colon): > 100 µM
- TGI (HL-60(TB) leukemia): > 100 µM
- TGI (LOX IMVI melanoma): > 100 µM
- TGI (MCF7 breast): > 100 µM
- TGI (MDA-N): > 100 µM
- TGI (NCI/ADR-RES ovarian): > 100 µM
- TGI (OVCAR-8 ovarian): > 100 µM
- TGI (SF-539 CNS): > 100 µM
- TGI (SR leukemia): > 100 µM
- TGI (SW-620 colon): > 100 µM
- TGI (UACC-257 melanoma): > 100 µM
- TGI (UACC-62 melanoma): > 100 µM

Structure (SMILES): C[C@H]1[C@H](C)CC[C@]2(C)CC[C@]3(C)C(=C[C@@H](O)[C@@H]4[C@@]5(C)[C@H](O)[C@@H](O)[C@H](O)C(C)(C)[C@@H]5CC[C@]43C)[C@H]12
- TGI (CCRF-CEM leukemia): > 100 µM
- TGI (DU-145 prostate): > 100 µM
- TGI (HCT-116 colon): > 100 µM
- TGI (HL-60(TB) leukemia): > 100 µM
- TGI (LOX IMVI melanoma): > 100 µM
- TGI (MCF7 breast): > 100 µM
- TGI (MDA-N): > 100 µM
- TGI (NCI/ADR-RES ovarian): > 100 µM
- TGI (OVCAR-8 ovarian): > 100 µM
- TGI (SF-539 CNS): > 100 µM
- TGI (SR leukemia): > 100 µM
- TGI (SW-620 colon): > 100 µM
- TGI (UACC-257 melanoma): > 100 µM
- TGI (UACC-62 melanoma): > 100 µM

Structure (SMILES): CC(=O)OC1CC2c3cccc4c3C(CC2N(C)C1=O)CN4C(=O)c1ccccc1 (stereo not given)
- TGI (CCRF-CEM leukemia): > 100 µM
- TGI (DU-145 prostate): 42.1 µM
- TGI (HCT-116 colon): 32.8 µM
- TGI (HL-60(TB) leukemia): 44 µM
- TGI (LOX IMVI melanoma): 25.3 µM
- TGI (MCF7 breast): 62.9 µM
- TGI (MDA-N): 77.1 µM
- TGI (NCI/ADR-RES ovarian): 45.1 µM
- TGI (OVCAR-8 ovarian): 48.8 µM
- TGI (SF-539 CNS): 93.9 µM
- TGI (SR leukemia): 94.8 µM
- TGI (SW-620 colon): > 100 µM
- TGI (UACC-257 melanoma): 49.9 µM
- TGI (UACC-62 melanoma): 50.3 µM

Structure (SMILES): COc1cccc(CCn2c(N)c(-c3ccccc3)c3ccc([N+](=O)[O-])cc3c2=O)c1
- TGI (CCRF-CEM leukemia): 43 µM
- TGI (DU-145 prostate): 31.6 µM
- TGI (HCT-116 colon): 10 µM
- TGI (HL-60(TB) leukemia): 27.3 µM
- TGI (LOX IMVI melanoma): 6.53 µM
- TGI (MCF7 breast): 12.7 µM
- TGI (MDA-N): 43.7 µM
- TGI (NCI/ADR-RES ovarian): 5.21 µM
- TGI (OVCAR-8 ovarian): 4.45 µM
- TGI (SF-539 CNS): 6.28 µM
- TGI (SR leukemia): 31.6 µM
- TGI (SW-620 colon): > 85.6 µM
- TGI (UACC-257 melanoma): 40.8 µM
- TGI (UACC-62 melanoma): 30.7 µM

Structure (SMILES): CC12CCC(C(=O)OC1=O)C2(C)C (stereo not given)
- TGI (CCRF-CEM leukemia): > 100 µM
- TGI (DU-145 prostate): > 100 µM
- TGI (HCT-116 colon): > 100 µM
- TGI (HL-60(TB) leukemia): > 100 µM
- TGI (LOX IMVI melanoma): > 100 µM
- TGI (MCF7 breast): > 100 µM
- TGI (MDA-N): > 100 µM
- TGI (NCI/ADR-RES ovarian): > 100 µM
- TGI (OVCAR-8 ovarian): > 100 µM
- TGI (SF-539 CNS): > 100 µM
- TGI (SR leukemia): 64.3 µM
- TGI (SW-620 colon): > 100 µM
- TGI (UACC-257 melanoma): > 100 µM
- TGI (UACC-62 melanoma): > 100 µM

Structure (SMILES): COc1ccc2c(c1C)C(=O)C(O)(CC=C(C)C)O2 (stereo not given)
- TGI (CCRF-CEM leukemia): > 100 µM
- TGI (DU-145 prostate): > 100 µM
- TGI (HCT-116 colon): > 100 µM
- TGI (HL-60(TB) leukemia): > 100 µM
- TGI (LOX IMVI melanoma): > 100 µM
- TGI (MCF7 breast): > 100 µM
- TGI (MDA-N): > 100 µM
- TGI (NCI/ADR-RES ovarian): > 100 µM
- TGI (OVCAR-8 ovarian): > 100 µM
- TGI (SF-539 CNS): > 100 µM
- TGI (SR leukemia): > 100 µM
- TGI (SW-620 colon): > 100 µM
- TGI (UACC-257 melanoma): > 100 µM
- TGI (UACC-62 melanoma): > 100 µM

Structure (SMILES): O=C(NCCCNC(=O)c1ccc2c(O)c(O)ccc2c1)c1ccc2c(O)c(O)ccc2c1
- TGI (CCRF-CEM leukemia): > 100 µM
- TGI (DU-145 prostate): > 100 µM
- TGI (HCT-116 colon): > 94.4 µM
- TGI (HL-60(TB) leukemia): > 100 µM
- TGI (LOX IMVI melanoma): > 100 µM
- TGI (MCF7 breast): > 100 µM
- TGI (MDA-N): 41.4 µM
- TGI (NCI/ADR-RES ovarian): > 100 µM
- TGI (OVCAR-8 ovarian): 99.1 µM
- TGI (SF-539 CNS): > 100 µM
- TGI (SR leukemia): > 90.7 µM
- TGI (SW-620 colon): > 62.2 µM
- TGI (UACC-257 melanoma): 53 µM
- TGI (UACC-62 melanoma): > 90 µM
